The text below walks through data of patent US10104882B2, “Methods and compositions for preventing and treating electrophile-mediated toxicities” (priority 2013, dated 2018).

A short description of data set [1]: Electrophile concentration-dependent loss of GSH sulfhydryl groups (in chemico). It counts as biochemical. Set-up: Log IC50: unit not given here. An excerpt: (§1) However, acrolein and other electrophiles used in this research are α,β-unsaturated carbonyls, whereas NAPQI and pBQ are quinone derivatives. […] Although both compounds are relatively acidic (low pKa values), thiol protection is limited since the corresponding adduct reactions involving the enolates of these acids are likely to be reversible. […] 2-ACP was the most protective 1,3-dicarbonyl compound tested in this and other studies^54 and was, therefore, the focus of subsequent research. […] 2-ACP (50 μM) was also effective at protecting thiol loss induced by pBQ, the degradation product of NAPQI (data not shown). […] These electrophiles target nucleophilic sulfhydryl groups that play critical roles in protein function and cellular redox balance.

The conditions of data set [2]: in chemico; cited from earlier work.
Data set [3] can be described thus: Ionization parameters (pKa, % anion). In kind it is physicochemical. The conditions noted are these: for pKa: read-out: pKa.
The nature of data set [4]: Prevention of NAPQI-induced GSH sulfhydryl loss by 1,3-dicarbonyl compounds (in chemico). It counts as biochemical. The conditions noted are these: for prevention of NAPQI-induced thiol loss: equimolar concentrations (50 μM), pH 7.4.
Text: FIG. 3. […] Numbers in parentheses are respective IC50 values.
FIG. 4. […] Numbers in parentheses are respective IC50 values.
as §1

Data set [5] relates to male C57 BL mice. The experiment in a line: Mouse model of oral acetaminophen (APAP) overdose hepatotoxicity/lethality. It counts as in vivo. The conditions noted are these: for changes in hepatic parameters, compound alone: no APAP. On the procedure: FIG. 7A-7B. […] Hepatoprotectants were administered 20 mins before (−20), 20 mins after (+20) or 60 mins after (+60) APAP intoxication.
A separate group received the PEG400 vehicle 20 mins prior to AAP. […] Vehicle control mice (n=10) received sequential injections of PEG400 (i.p. followed by oral). At several times post-AAP administration (2, 6, 24, 48 and 168 hrs), groups of mice were anesthetized in a carbon dioxide chamber and heparinized blood samples were collected. Samples were centrifuged and resulting serum was retained for analyses (see below). Livers were also excised, weighed and tissue samples were collected for histopathological evaluation. Remaining tissue was snap frozen in liquid nitrogen. Hepatotoxicity was determined by quantification of serum alanine aminotransferase (ALT) and aspartate aminotransferase (AST) using colorimetric assays. Serum lactate dehydrogenase (LDH) was also measured as an index of generalized AAP-induced organ toxicity. To evaluate the extent of cellular oxidative stress in liver homogenates, the unsaturated aldehyde by-products of lipid peroxidation, HNE and malondialdhyde (MDA), were determined according to a modification of the Gerard-Monnier et al. method^27. In addition, soluble thiol contents were measured in homogenates according to LoPachin et al.^44.

Data set [6] has as its system rat liver. The data set can be described thus: Acute ischemia-reperfusion injury of rat liver. In kind it is in vivo, rats. Here is the method: FIG. 9. Effect of 2-ACP on liver ischemia. 2-ACP (2.40 mmol/kg) or vehicle was injected i.p. 10 mins before clamping the portal vasculature for 45 mins. At the completion of the Ischemic phase, clamps were removed and the liver was reperfused for 180 mins. Following reperfusion, blood samples were removed for analysis of liver enzymes (ALT, AST) and LDH in plasma. Joining lines indicate statistically significant differences in treatment groups at ***P<0.001 level of significance.
FIG. 10. Effect of 2-ACP on liver reperfusion. 2-ACP (2.40 mmol/kg) or vehicle was injected i.p. 10 mins before restoration of hepatic circulation (reperfusion phase). At the completion of reperfusion, blood samples were removed for analysis of liver enzymes (ALT, AST) and LDH (a general enzyme indicator of tissue injury) in plasma. Joining lines indicate statistically significant differences in treatment groups at ***P<0.001 level of significance.
FIG. 11. […] At the completion of reperfusion, blood samples were removed for analysis of liver enzymes (ALT, AST) and LDH (a general enzyme indicator of tissue injury) in plasma. Joining lines indicate statistically significant differences in treatment groups at ***P<0.001 level of significance.
IR injury is the pathophysiological basis for stroke, myocardial infarction and other organ failure. It is also an underlying cause of allograft rejection following tissue transplantation. To investigate the possibility that 2-ACP and other nucleophilic dicarbonyl derivatives might be useful in preventing IR-mediated organ damage, rats were anesthetized and I/R was induced by clamping the portal vein and hepatic artery using commercially available microclips placed at the porta hepatis. The ischemic state was maintained for 45 mins, which affected approximately 70% of the liver mass. Following removal of the microclamps, hepatic reperfusion was maintained for 180 min. Animals were then sacrificed and plasma samples were taken for subsequent analysis of lactate dehydrogenase (LDH; a general enzyme indicator of cell injury) and liver enzymes (AST and ALT). […] A sham group (laparotomy only) provided baseline data for the appearance of liver enzyme in plasma. […] This level of hepatocyte leakage indicates substantial irreversible cell injury. […] Thus, prior 2-ACP administration is able to diminish the pathophysiological disposition of the ischemic phase. Further, amelioration of the ischemic phase truncates subsequent culmination of hepatocyte injury during reperfusion. To determine whether hepatoprotection was phase-specific and dose-dependent, 2-ACP (1.20-2.40 mmol/kg) was injected i.p. 10 mins prior to the restoration of hepatic circulation (reperfusion phase).

In data set [7] the test system is Rat striatal synaptosomes. The conditions noted are these: acrolein 1-1000 μM with cytoprotectant 500 μM; cited from earlier work.
Data set [8] relates to MN9D cells. The conditions noted are these: pre-incubation; cited from earlier work.
Data set [9] relates to MN9D cells. The conditions noted are these: cited from earlier work.
The nature of data set [10]: Protection against pBQ-induced thiol loss (in chemico). In kind it is biochemical. The conditions noted are these: 50 μM.
Text: as §1

For data set [11] the following is noted: physiological conditions (pH 7.4); cited from earlier work.
[12] abbreviates: i.p. 2.40 mmol/kg 10 mins before ischemia (45 min), reperfusion 180 min.
[13] abbreviates: i.p. 10 mins before reperfusion, 2-ACP 1.20-2.40 mmol/kg, equimolar NAC.

Entries after “also recorded” stand apart in the source; their conditions may differ. Like-named read-outs stand apart in the source and are kept apart here.

As for `CC(=O)N=C1C=CC(=O)C=C1` [NAPQI, N-acetyl-p-benzoquinone imine], the “Log IC50” value in data set [1] (logarithmic value, electrophile concentration that causes 50% loss of the GSH sulfhydryl group) stood at 0.92. In data set [1] (read-out: IC50 for NAPQI-induced GSH loss, NAPQI alone, NAPQI 2-128 μM, no protectant), the concentration for half-maximal inhibition (IC50) amounted to 9.1 µM. For the same molecule, the “second order rate constant for reaction with cysteine sulfhydryl groups” value in data set [2] was 32000 M⁻¹ s⁻¹.

For `CC(=O)N[C@@H](CS)C(=O)O` [NAC, N-acetylcysteine], the pKa was found to be 9.5 in data set [3] (Table 1) and 9.6 in data set [3]. In addition, the “% Anion (pH = 7.4)” value in [3] came to 0.8%. In addition, the “prevention of NAPQI-induced thiol loss” value in [4] is listed as “only minimal protection”. The “changes in hepatic parameters, compound alone” value in [5] is on record as “neither NAC nor ACP alone caused significant changes”. For the same molecule, the “plasma liver enzymes (ALT, AST) and LDH after I/R” value in data set [6] (setting [12]) and in [6] (setting [13]) was “did not prevent I/R liver injury” in each case. Further, the “change in acrolein IC50 for synaptosomal DA transport inhibition” value in data set [7] is “more modest”. In data set [8], the “protection from acrolein-induced cell loss” value is reported as “completely prevented”. For the same molecule, in [9], the “protection against H2O2-induced cell death” value is “significantly less efficacious”.

For `CC(=O)C1CCCC1=O` (stereo not shown) [2-ACP, 2-acetylcyclopentanone], the “% Anion (pH = 7.4)” value in [3] turned out to be 28.5%. In addition, the “fraction present as nucleophilic enolate/thiolate anion” value in data set [3] (physiological pH (7.4)) is about 30%. Further, the “thiol protection against NAPQI over concentration range” value in data set [4] (2-ACP 25-200 μM, NAPQI 2-128 μM) is reported as “provides thiol protection over a broad range of concentrations”. For the same molecule, the “prevention of NAPQI-induced thiol loss” value in data set [4] was “three-fold increase in the respective IC50 value”. For the same molecule, the “protection of thiol loss induced by pBQ” value in data set [10] is listed as “effective”. Also, in data set [5], the “changes in hepatic parameters, compound alone” value is on record as “neither NAC nor ACP alone caused significant changes”. Besides, the “protection from APAP-induced lethality (survival)” value is listed as “complete protection” in data set [5] (i.p. 2.40 mmol/kg, 20 min after (+20) APAP); “completely prevented APAP lethality; also recorded: complete protection” in data set [5] (i.p. 2.40 mmol/kg, 20 min before oral APAP 500 mg/kg, 7 day period); “ineffective” in [5] (i.p. 2.40 mmol/kg, 60 min after (+60) APAP); “modest improvements in APAP survival rate” in data set [5] (oral gavage 2.40 mmol/kg, 20 min before oral APAP). The “biochemical indices of hepatocyte death (plasma ALT, AST, LDH) and oxidative stress (liver thiol loss, unsaturated aldehyde content)” value in [5] (i.p. pretreatment, oral APAP) is reported as “prevented APAP-induced liver cell death”. For the same molecule, in data set [5] (i.p. pretreatment, oral APAP), the “histopathology: liver centrilobular necrosis” value is “prevented the liver centrilobular necrosis”. In data set [5] (i.p. pretreatment, 2-ACP 0.80-2.40 mmol/kg, NAC 4.80-7.20 mmol/kg), the “dose-dependency of protection from APAP-induced lethality” value was “dose-dependent, although it occurred over a narrow dose-range”. For the same molecule, the “oral hepatoprotection at increased dose” value in data set [5] (oral 4.80 mmol/kg) is “improved oral 2-ACP hepatoprotection”. Further, in [5] (oral, HEPES buffer pH 9.0), the “oral hepatoprotection with buffered gavage solution” value is recorded as “improved oral 2-ACP hepatoprotection”. The “plasma liver enzymes (ALT, AST) and LDH after I/R” value in data set [6] (setting [12]) is “considerable reductions in the plasma appearance of liver enzymes”; in data set [6] (setting [13]) it was “substantial hepatocyte dose-dependent protection”. For the same molecule, the “effect on rate of acrolein-induced sulfhydryl (thiol) loss” value in [11] was “completely prevented”. Besides, the “change in acrolein IC50 for synaptosomal DA transport inhibition” value in data set [7] is “largest increases”. Moreover, the “protection from acrolein-induced cell loss” value in data set [8] is listed as “completely prevented”. For the same molecule, the “protection against H2O2-induced cell death” value in [9] is “completely prevented cell death”.
